The target of one test is Ion channel NompC (Danio rerio, UniProt Q7T1G6). Briefly: Dose response cell-based high-throughput screening assay for agonists of the transient receptor potential channel N1 (TRPN1). [Related pubchem assays (depositor defined):AID1424, AID1448]. The test is classed as functional.
Test [1] is described as follows: Trypanosoma cruzi growth suppression in host cells – NIH3T3 host cells, beta-gal luminescence, confirmation (AID 2044).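 Further: intracellular parasites grown in NIH/3T3 mouse fibroblasts as host cells; luminescent beta-galactosidase reporter signal from transgenic T. cruzi replicating inside host cells; inhibitors lower the luminescence signal.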 The test is classed as functional, cell-based.
Another test addresses Mucolipin-3 (Homo sapiens, UniProt Q8TDD5). Briefly: Fluorescence counterscreen assay for […] agonists: dose response cell-based high-throughput screening assay to identify agonists of the transient receptor potential channel ML3 (TRPML3). [Related pubchem assays: 1424, 1448 ]. The format is functional. In general terms: A counterscreen serves to expose hits that act by an unwanted route or on another target.

Test [2] can be described thus: NIH3T3 cell viability loss – ATP luminescence, mouse fibroblasts, counter-screen, dose response (AID 2010).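 Further: cells exposed to compound for about 90 hours before reading.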 The format is functional, cell-based.
A short description of test [3]: Luminescence Cell-Based Dose Retest to Confirm Inhibitors of Cancer Stem Cells. [Related pubchem assays (depositor defined):AID2717, AID2721]. The test is classed as functional. To be noted: Homo sapiens.
In another test the test system is INS1. Briefly: INS-1E survival protection against cytokine death – cell-based, luminescence, retest, dose response (AID 449756).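 Further: cell death triggered by IL-1 beta plus TNF-alpha plus IFN-gamma mixture; protective hits raise ATP signal compared with cytokine alone wells.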 The format is functional. To be noted: Rattus norvegicus.
The target of a further test is Cytochrome P450 2D6 (Homo sapiens, UniProt P10635).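 Further: CYP2D6 member of a cytochrome P450 panel assay.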
Another test addresses Cytochrome P450 3A4 (Homo sapiens, UniProt P08684).
Test [4] can be described thus: Luminescence Cell-Based Dose Confirmation HTS to Identify Activators of 5'UTR Stem-Loop Driven Alpha-Synuclein mRNA Translation in H4 Neuroglioblastoma Cells. [Related pubchem assays: 1829 (Project Summary), 1814 (Primary HTS)]. The test is classed as functional.
Test [5] can be described thus: Luminescence Cell-Based Dose Response HTS to Identify Activators of Luciferase Translation or Activity in H4 […] Cells. [Related pubchem assays: 1829 (Project Summary), 1814 (Primary HTS)]. The test is classed as functional.
Test [6] concerns BJ. As to the kind of experiment: BJ-TERT fibroblast viability loss – cell-based, RAS-independent, luminescence, dose response (AID 1933). The test is classed as functional. To be noted: Homo sapiens.
Another test concerns H4. As to the kind of experiment: Luminescence Cell-Based Dose Response HTS to Identify Activators of 5'UTR Stem-Loop Driven Prion Protein mRNA Translation in H4 Neuroglioblastoma Cells. [Related pubchem assays: 1829 (Project Summary), 1814 (Primary HTS)]. The test is classed as functional. To be noted: Homo sapiens.
In test [7] the test system is BJ. Briefly: cells. The test is classed as functional, cell-based. To be noted: Homo sapiens.
Test [8] has as its system BJ. As to the kind of experiment: BJ-TERT-LT-ST fibroblast viability loss – cell-based, RAS-independent, luminescence, dose response (AID 1935).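 Further: BJ fibroblasts immortalized with TERT plus LT and ST oncogenes.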 The test is classed as functional. To be noted: Homo sapiens.
The nature of test [9]: DRD fibroblast viability loss – cell-based, non-viral oncogenic, luminescence, dose response (AID 1934). The format is functional. To be noted: Homo sapiens.
Test [10] concerns the target Glutathione S-transferase omega-1 (Homo sapiens, UniProt P78417). Briefly: IC50 of human GSTO1 inhibition by gel ABPP – biochemical, SE-Rh probe, in-gel fluorescence, powder samples, late-stage follow-up (AID 463081). The test is classed as functional.
Test [11] addresses T1, Replicative DNA helicase DnaB (Mycobacterium tuberculosis, UniProt P9WMR3).
T1 sequence (P9WMR3 whole entry): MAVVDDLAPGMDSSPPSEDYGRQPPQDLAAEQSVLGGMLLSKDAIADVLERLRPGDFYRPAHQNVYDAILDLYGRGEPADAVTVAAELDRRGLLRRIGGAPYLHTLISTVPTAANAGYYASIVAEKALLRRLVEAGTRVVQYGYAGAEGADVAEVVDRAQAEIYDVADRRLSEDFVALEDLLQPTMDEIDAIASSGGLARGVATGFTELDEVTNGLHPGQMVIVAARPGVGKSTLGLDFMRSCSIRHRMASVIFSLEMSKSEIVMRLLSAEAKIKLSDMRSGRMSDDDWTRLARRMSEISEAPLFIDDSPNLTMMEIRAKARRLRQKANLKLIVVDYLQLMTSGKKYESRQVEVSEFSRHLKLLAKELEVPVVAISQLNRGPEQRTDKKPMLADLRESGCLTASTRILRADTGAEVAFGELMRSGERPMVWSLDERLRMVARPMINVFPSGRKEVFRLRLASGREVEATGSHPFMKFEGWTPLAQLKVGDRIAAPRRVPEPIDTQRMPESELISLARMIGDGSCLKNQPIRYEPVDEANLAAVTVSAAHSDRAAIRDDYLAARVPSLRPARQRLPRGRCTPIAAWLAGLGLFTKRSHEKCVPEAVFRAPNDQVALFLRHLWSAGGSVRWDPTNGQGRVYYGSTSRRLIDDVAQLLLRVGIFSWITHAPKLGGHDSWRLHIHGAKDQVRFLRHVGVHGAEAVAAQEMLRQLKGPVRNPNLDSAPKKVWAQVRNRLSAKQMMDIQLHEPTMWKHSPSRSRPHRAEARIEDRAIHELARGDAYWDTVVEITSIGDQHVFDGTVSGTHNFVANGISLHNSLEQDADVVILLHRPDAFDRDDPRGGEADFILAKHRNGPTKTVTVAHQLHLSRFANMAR
As to the kind of experiment: DnaB intein splicing inhibitors, dose response, biochemical, cell-free fluorescence (AID 449749). The format is functional.

The subject of test [12] is BJ. As to the kind of experiment: growth inhibition of engineered Ras-driven BJ cells – cell-based, alamar blue fluorescence, cherrypicked samples, dose response (AID 2631).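 Further: confirmatory dose-response assay in RAS-dependent BJ fibroblasts engineered with TERT, LT and ST, with cytotoxicity read by fluorescence.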 To be noted: Homo sapiens. The format is functional.
The target of another test is T2, Protein RecA (Mycobacterium tuberculosis, UniProt P9WHJ3).
T2 sequence (P9WHJ3 whole entry): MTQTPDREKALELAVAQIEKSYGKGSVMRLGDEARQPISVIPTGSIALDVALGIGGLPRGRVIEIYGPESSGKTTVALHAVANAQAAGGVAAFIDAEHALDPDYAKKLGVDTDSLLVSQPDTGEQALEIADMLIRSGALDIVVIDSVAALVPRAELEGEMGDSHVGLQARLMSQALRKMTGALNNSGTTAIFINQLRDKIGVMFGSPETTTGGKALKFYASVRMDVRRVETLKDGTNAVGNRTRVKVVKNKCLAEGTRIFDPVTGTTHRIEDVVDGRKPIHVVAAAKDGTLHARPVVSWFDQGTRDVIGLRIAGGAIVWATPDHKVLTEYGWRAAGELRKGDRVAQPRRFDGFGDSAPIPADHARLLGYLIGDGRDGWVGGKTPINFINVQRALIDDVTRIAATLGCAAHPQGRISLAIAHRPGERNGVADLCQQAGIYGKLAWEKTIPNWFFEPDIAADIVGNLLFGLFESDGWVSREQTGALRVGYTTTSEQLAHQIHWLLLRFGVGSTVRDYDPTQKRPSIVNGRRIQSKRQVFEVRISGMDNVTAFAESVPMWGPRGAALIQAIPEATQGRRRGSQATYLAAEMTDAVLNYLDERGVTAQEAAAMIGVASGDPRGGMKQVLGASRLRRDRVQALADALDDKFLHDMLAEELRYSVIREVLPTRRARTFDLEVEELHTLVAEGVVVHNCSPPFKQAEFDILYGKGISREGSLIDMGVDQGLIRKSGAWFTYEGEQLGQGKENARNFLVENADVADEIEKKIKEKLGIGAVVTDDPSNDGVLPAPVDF
Briefly: Fluorescence Cell-Free Homogeneous Dose Retest to Identify Inhibitors of RecA-Intein Splicing Activity. [Related pubchem assays (depositor defined):AID2097, AID2223, AID489010, AID492950]. The format is functional.

The next test has as its target Paired box protein Pax-8 (Homo sapiens, UniProt Q06710). Briefly: PAX8 transcriptional activity inhibition in RMG-I – RMG-I cells, luciferase, cherry-pick, dose response (AID 687027).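 Further: luciferase reporter driven by Pax8 target thyroperoxidase promoter measured by SteadyGlo luminescence.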 The format is functional, cell-based.
A short description of test [13]: general cell-killing toxicity readout – plate reader, dry powder samples, cytotoxicity control for PAX8 inhibitor project, dose response (AID 743021). The format is functional, cell-based.
The target of the next test is T3, Coagulation factor XII (Homo sapiens, UniProt P00748).
T3 sequence (P00748 whole entry): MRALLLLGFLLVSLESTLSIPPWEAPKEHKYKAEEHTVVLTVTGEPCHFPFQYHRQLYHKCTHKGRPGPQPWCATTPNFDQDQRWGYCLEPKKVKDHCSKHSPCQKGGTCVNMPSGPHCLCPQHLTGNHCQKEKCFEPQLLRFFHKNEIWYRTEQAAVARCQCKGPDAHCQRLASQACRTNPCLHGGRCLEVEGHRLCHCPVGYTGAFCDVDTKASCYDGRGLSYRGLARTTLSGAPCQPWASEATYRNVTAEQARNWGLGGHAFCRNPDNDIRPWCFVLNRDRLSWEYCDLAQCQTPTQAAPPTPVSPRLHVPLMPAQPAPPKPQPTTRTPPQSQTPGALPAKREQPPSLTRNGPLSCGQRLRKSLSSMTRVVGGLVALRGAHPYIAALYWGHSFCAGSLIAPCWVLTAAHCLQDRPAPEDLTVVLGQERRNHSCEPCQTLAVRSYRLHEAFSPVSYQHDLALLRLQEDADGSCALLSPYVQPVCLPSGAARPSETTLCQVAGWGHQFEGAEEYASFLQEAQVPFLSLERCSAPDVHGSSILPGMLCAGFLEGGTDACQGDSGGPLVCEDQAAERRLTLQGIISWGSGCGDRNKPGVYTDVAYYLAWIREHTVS
As to the kind of experiment: activated coagulation factor XII inhibitor potency, concentration-effect curve, cell-free (AID 716). The format is functional.

Test [14] concerns the target Tyrosine-protein phosphatase non-receptor type 7 (Homo sapiens, UniProt P35236). Briefly: inhibition of hematopoietic tyrosine phosphatase HePTP – biochemical, set 2, SAR follow-up (AID 449736). The test is classed as functional.

Active and inactive are the calls of the source. Where only a bound is given, the exact number is not on record here.

As a reminder, the EC50 is the midpoint of the concentration-response curve. Broadly, the AC50 is the concentration giving half of the maximal activity seen. For orientation: IC50 means the concentration that gives 50% inhibition.

Cytochrome P450 3A4, sequence (P08684 whole entry): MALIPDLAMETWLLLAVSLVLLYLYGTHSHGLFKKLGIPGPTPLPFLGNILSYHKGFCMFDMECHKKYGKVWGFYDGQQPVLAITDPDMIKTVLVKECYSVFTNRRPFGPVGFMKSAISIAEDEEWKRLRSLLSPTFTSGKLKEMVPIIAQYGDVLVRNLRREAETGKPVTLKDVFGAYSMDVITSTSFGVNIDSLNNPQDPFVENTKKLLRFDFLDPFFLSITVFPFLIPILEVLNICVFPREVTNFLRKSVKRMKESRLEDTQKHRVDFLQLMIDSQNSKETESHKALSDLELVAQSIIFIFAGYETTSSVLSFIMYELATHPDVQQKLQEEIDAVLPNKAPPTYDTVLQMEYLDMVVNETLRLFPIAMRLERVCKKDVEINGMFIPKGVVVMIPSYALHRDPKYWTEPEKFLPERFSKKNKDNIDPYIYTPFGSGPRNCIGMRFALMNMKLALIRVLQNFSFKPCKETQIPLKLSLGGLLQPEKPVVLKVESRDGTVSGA
Glutathione S-transferase omega-1, sequence (P78417 whole entry): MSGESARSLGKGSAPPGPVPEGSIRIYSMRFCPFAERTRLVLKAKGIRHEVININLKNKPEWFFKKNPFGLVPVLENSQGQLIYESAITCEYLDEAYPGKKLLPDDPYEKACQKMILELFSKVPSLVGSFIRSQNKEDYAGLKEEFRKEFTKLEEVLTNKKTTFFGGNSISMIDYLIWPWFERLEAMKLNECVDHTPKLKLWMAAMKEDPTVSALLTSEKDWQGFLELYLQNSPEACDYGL
Paired box protein Pax-8, sequence (Q06710 whole entry): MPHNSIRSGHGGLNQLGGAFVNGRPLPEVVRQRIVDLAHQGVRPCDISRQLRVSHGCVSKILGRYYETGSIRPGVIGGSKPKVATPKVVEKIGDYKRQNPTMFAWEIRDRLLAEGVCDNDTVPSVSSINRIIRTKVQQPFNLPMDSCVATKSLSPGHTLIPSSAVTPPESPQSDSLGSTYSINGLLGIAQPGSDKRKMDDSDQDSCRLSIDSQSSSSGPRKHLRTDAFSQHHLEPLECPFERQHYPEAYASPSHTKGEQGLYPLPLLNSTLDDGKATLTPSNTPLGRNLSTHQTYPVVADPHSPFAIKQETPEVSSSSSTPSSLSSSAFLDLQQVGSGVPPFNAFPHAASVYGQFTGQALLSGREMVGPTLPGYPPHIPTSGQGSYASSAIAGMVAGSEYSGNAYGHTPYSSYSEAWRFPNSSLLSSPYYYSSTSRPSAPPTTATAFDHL
Mucolipin-3, sequence (Q8TDD5 whole entry): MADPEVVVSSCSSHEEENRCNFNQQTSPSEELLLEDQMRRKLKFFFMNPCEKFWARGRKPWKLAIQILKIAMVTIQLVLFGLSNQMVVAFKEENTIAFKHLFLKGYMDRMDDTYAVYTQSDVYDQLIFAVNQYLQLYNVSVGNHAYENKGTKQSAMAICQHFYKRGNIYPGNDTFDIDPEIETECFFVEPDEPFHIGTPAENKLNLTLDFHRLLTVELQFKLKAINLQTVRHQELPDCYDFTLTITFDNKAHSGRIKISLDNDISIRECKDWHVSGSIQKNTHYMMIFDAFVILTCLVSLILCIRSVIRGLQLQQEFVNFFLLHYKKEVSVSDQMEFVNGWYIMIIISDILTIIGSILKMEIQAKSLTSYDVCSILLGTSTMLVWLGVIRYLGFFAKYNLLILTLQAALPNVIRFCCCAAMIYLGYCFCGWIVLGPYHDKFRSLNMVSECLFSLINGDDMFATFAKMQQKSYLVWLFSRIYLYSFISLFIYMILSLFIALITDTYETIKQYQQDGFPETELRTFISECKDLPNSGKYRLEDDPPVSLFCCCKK
Tyrosine-protein phosphatase non-receptor type 7, sequence (P35236 whole entry): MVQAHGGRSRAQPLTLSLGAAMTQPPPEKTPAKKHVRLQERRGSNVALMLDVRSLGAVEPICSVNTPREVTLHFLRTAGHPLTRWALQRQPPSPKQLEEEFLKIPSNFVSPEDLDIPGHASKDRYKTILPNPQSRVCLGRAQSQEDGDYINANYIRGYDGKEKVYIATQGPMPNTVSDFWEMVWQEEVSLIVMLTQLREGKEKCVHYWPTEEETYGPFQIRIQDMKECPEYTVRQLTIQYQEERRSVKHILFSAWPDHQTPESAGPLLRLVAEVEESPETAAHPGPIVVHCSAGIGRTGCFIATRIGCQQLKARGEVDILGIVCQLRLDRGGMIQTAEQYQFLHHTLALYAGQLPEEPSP
Ion channel NompC, sequence (Q7T1G6 whole entry): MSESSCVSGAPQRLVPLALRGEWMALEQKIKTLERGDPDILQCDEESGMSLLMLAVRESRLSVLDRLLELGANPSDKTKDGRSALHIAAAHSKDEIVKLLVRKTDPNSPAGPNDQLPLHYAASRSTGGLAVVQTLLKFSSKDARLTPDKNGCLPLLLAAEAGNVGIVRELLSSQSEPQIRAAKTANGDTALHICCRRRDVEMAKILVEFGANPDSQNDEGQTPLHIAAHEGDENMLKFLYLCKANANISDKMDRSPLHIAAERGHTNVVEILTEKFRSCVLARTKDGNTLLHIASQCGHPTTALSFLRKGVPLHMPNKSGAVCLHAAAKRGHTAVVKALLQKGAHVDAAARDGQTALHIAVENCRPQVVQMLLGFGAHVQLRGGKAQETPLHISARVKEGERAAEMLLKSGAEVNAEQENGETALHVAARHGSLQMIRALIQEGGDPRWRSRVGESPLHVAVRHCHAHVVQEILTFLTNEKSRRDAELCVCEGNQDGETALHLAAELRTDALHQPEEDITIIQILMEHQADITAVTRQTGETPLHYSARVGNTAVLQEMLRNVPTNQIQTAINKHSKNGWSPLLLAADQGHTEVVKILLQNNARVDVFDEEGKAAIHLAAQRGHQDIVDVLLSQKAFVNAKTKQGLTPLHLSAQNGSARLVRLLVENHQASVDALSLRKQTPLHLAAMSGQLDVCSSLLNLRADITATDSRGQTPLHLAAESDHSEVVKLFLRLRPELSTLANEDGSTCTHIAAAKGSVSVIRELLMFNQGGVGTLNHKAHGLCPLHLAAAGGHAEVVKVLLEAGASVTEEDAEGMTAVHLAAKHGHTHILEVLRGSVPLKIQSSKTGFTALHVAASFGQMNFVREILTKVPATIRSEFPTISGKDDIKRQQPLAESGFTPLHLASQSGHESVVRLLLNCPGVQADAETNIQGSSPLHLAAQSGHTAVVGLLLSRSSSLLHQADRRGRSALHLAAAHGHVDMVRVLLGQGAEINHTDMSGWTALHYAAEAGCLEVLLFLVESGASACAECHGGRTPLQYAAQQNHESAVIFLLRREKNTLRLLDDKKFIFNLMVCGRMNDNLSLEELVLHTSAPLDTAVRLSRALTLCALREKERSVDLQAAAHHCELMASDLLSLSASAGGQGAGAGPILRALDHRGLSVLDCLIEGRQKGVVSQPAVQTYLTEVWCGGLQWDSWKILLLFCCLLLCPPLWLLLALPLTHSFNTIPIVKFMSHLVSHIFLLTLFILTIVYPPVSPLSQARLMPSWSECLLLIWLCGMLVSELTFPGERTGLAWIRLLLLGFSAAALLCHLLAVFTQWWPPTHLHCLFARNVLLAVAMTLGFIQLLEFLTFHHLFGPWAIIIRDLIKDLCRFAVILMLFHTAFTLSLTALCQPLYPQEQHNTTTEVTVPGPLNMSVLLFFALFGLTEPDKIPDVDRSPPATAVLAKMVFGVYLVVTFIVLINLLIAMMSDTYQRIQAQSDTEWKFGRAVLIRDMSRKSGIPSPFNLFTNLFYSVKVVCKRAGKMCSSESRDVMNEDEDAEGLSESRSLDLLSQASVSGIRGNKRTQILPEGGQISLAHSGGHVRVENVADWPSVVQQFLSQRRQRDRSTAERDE
Cytochrome P450 2D6, sequence (P10635 whole entry): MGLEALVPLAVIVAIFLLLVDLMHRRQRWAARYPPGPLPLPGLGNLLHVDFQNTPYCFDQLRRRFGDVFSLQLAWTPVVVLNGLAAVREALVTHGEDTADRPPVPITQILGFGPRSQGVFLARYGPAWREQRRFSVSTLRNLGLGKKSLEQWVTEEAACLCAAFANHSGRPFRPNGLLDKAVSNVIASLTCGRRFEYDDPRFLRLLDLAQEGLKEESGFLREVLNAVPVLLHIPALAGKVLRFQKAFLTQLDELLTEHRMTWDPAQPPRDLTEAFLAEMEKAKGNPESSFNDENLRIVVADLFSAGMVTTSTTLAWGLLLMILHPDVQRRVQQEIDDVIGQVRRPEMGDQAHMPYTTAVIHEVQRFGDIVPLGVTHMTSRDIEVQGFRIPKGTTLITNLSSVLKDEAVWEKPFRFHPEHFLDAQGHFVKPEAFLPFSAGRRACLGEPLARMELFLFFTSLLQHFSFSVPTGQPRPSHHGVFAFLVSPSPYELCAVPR

With `COC(=O)c1cccc(NC(=O)Nc2ccc(Cl)c(Cl)c2)c1`, the EC50 at Ion channel NompC is > 29.9 µM (inactive); in test [1], 2.15 µM (active); at Mucolipin-3 it was > 29.9 µM (not active); in test [2] it was > 60 µM (inconclusive). Besides, the AC50 was 2.77 µM (active) in [3], 6.38 µM (active) in the test with INS1, 22.4 µM (inconclusive) on Cytochrome P450 2D6 and 22.4 µM (inconclusive) at Cytochrome P450 3A4.

Regarding `O=C(NC1CCCCC1)C(c1cccnc1)N(C(=O)CCl)c1ccc(F)cc1` (centres undefined), the EC50 is > 120 µM (not active) in test [4]; 10.1 µM (active) in test [5]; 1.3 µM (inconclusive) in the test with BJ [6]; > 120 µM (not active) in the test on H4; 5.32 µM (inconclusive) in the test on BJ [7]; 7.25 µM (active) in the test on BJ [8]. Besides, the figures for the concentration giving a half-maximal response (EC50) (in test [9]; in the test on BJ [12]; on Protein RecA) were 2.48 µM (active), 0.535 µM (active) and 0.816 µM (active), respectively. Also, the half-maximal activity concentration (AC50) in test [3] was 1.54 µM (active); in [11] it was 5.76 µM (active); at Paired box protein Pax-8, 1.43 µM (active); in test [13], 7.37 µM (active). Moreover, the IC50 in [10] was 0.054 µM (active).

As for `COc1ccc2oc(C)c(C(=O)Cn3ccnc3)c2c1`, on Coagulation factor XII, the IC50 was > 50 µM (inactive).

`NS(=O)(=O)c1ccc(NC(=S)Nc2ccc3c(c2)CCC3)cc1`: the IC50 in test [14] was 7.93 µM (active).

The record behind these values is ChEMBL document CHEMBL1201862, “PubChem BioAssay data set” (2004).
